PubChem BioAssay (NCI)
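Where inhibition never reached the appropriate level, the endpoint shown equals the highest concentration tested. Otherwise, values were interpolated linearly from a five-concentration, 48-hour dose response in 96-well plates. GI50 = concentration required for 50% inhibition of growth. TGI: total growth inhibition.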 Peptide text beside a SMILES is read from it. * marks the point of attachment. OSu = O=C1CCC(=O)N1O*; OBn = c1ccc(CO*)cc1; Bn = c1ccc(C*)cc1

Assays:
Assay in all cases: DTP human tumour cell line panel, 48 h
SK-MEL-5 melanoma = system: SK-MEL-5 melanoma
TK-10 renal = system: TK-10 renal
HOP-62 NSCLC = system: HOP-62 NSCLC
UACC-62 melanoma = system: UACC-62 melanoma
RPMI-8226 leukemia = system: RPMI-8226 leukemia
EKVX NSCLC = system: EKVX NSCLC
MDA-MB-435 = system: MDA-MB-435
HT29 colon = system: HT29 colon
SK-MEL-2 melanoma = system: SK-MEL-2 melanoma
SF-268 CNS = system: SF-268 CNS

O=[N+]([O-])c1ccc(-[n+]2ccc3ccccc3c2)c([N+](=O)[O-])c1
TGI (SK-MEL-5 melanoma): 6.56 µM
TGI (TK-10 renal): 3.52 µM
TGI (HOP-62 NSCLC): 20 µM
TGI (UACC-62 melanoma): 5.53 µM
TGI (RPMI-8226 leukemia): 6.68 µM
TGI (EKVX NSCLC): 19.4 µM
TGI (MDA-MB-435): 7.07 µM
TGI (HT29 colon): 6.5 µM
TGI (SK-MEL-2 melanoma): 25.2 µM
TGI (SF-268 CNS): 11.9 µM

NC(CNc1ccc(O)cc1)C(=O)O (stereo not drawn)
TGI (SK-MEL-5 melanoma): > 100 µM
TGI (TK-10 renal): > 100 µM
TGI (HOP-62 NSCLC): > 100 µM
TGI (UACC-62 melanoma): 49.4 µM
TGI (RPMI-8226 leukemia): > 100 µM
TGI (EKVX NSCLC): > 100 µM
TGI (HT29 colon): > 100 µM
TGI (SK-MEL-2 melanoma): > 100 µM
TGI (SF-268 CNS): > 100 µM

Cc1csc2n(C)c(=O)c3ccccc3[n+]12
TGI (SK-MEL-5 melanoma): > 100 µM
TGI (TK-10 renal): > 100 µM
TGI (HOP-62 NSCLC): > 100 µM
TGI (UACC-62 melanoma): > 100 µM
TGI (RPMI-8226 leukemia): > 100 µM
TGI (EKVX NSCLC): > 100 µM
TGI (MDA-MB-435): > 100 µM
TGI (HT29 colon): > 100 µM
TGI (SK-MEL-2 melanoma): > 100 µM
TGI (SF-268 CNS): > 100 µM

CCOC(=O)/C=C1/Nc2cc(F)c(F)cc2NC1=O
TGI (SK-MEL-5 melanoma): > 100 µM
TGI (TK-10 renal): > 100 µM
TGI (HOP-62 NSCLC): > 100 µM
TGI (UACC-62 melanoma): > 100 µM
TGI (RPMI-8226 leukemia): > 100 µM
TGI (EKVX NSCLC): > 100 µM
TGI (MDA-MB-435): > 100 µM
TGI (HT29 colon): > 100 µM
TGI (SK-MEL-2 melanoma): > 100 µM
TGI (SF-268 CNS): > 100 µM

Cc1oc2c(C)c3oc(=O)cc(C)c3cc2c1CN
TGI (TK-10 renal): 86.9 µM
TGI (HOP-62 NSCLC): > 100 µM
TGI (UACC-62 melanoma): > 100 µM
TGI (RPMI-8226 leukemia): > 100 µM
TGI (EKVX NSCLC): > 100 µM
TGI (HT29 colon): > 100 µM
TGI (SK-MEL-2 melanoma): > 100 µM
TGI (SF-268 CNS): > 100 µM

CC1=CC(=O)/C(=C/N2CCNC2=S)C(=O)O1
TGI (SK-MEL-5 melanoma): > 100 µM
TGI (TK-10 renal): > 100 µM
TGI (HOP-62 NSCLC): > 100 µM
TGI (UACC-62 melanoma): > 100 µM
TGI (RPMI-8226 leukemia): > 100 µM
TGI (EKVX NSCLC): > 100 µM
TGI (MDA-MB-435): > 100 µM
TGI (HT29 colon): > 100 µM
TGI (SK-MEL-2 melanoma): > 100 µM
TGI (SF-268 CNS): > 100 µM

CCCCNCC(O)c1cc(-c2ccc(C(F)(F)F)cc2)nc(-c2ccc(C(F)(F)F)cc2)c1 (stereo not drawn)
GI50 (SK-MEL-5 melanoma): 1.77 µM
TGI (SK-MEL-5 melanoma): 3.26 µM
GI50 (TK-10 renal): 2.16 µM
TGI (TK-10 renal): 3.83 µM
GI50 (UACC-62 melanoma): 1.89 µM
TGI (UACC-62 melanoma): 3.67 µM
GI50 (HT29 colon): 1.84 µM
TGI (HT29 colon): 3.62 µM
GI50 (SK-MEL-2 melanoma): 2.46 µM
TGI (SK-MEL-2 melanoma): 4.33 µM
GI50 (SF-268 CNS): 1.97 µM
TGI (SF-268 CNS): 3.89 µM

CCOC(=O)CCC(NC(=O)c1ccc(NCc2ccc3nc(-c4ccccc4)c(Cl)nc3c2)c2ccccc12)C(=O)OCC (stereo not drawn)
TGI (SK-MEL-5 melanoma): > 100 µM
TGI (TK-10 renal): > 100 µM
TGI (HOP-62 NSCLC): > 100 µM
TGI (UACC-62 melanoma): > 100 µM
TGI (EKVX NSCLC): > 100 µM
TGI (MDA-MB-435): > 100 µM
TGI (HT29 colon): > 100 µM
TGI (SK-MEL-2 melanoma): > 100 µM
TGI (SF-268 CNS): > 100 µM

C=C1[C@H](OCC(C)C)[C@@H](OC(=O)C(C)CC)[C@@H](O)C(C)(C)/C=C/[C@H](C)C(=O)[C@@]2(O)C[C@H](C)[C@H](O)[C@@H]2[C@H]1OC(=O)C(C)CC (stereo partly drawn)
TGI (SK-MEL-5 melanoma): > 10.8 µM
TGI (TK-10 renal): > 19.3 µM
TGI (HOP-62 NSCLC): > 10.5 µM
TGI (UACC-62 melanoma): > 20 µM
TGI (RPMI-8226 leukemia): 12 µM
TGI (EKVX NSCLC): > 20 µM
TGI (MDA-MB-435): > 20 µM
TGI (HT29 colon): 9.87 µM
TGI (SK-MEL-2 melanoma): > 15 µM
TGI (SF-268 CNS): > 20 µM

OCCNc1nc2c(N3CCCC3)nc(N3CCNCC3)nc2nc1NCc1ccccc1
TGI (SK-MEL-5 melanoma): 26.1 µM
TGI (TK-10 renal): 28.7 µM
TGI (HOP-62 NSCLC): 18.1 µM
TGI (UACC-62 melanoma): 31.3 µM
TGI (RPMI-8226 leukemia): 38.4 µM
TGI (EKVX NSCLC): 26.9 µM
TGI (MDA-MB-435): 25.1 µM
TGI (HT29 colon): 21.7 µM
TGI (SK-MEL-2 melanoma): 28.7 µM
TGI (SF-268 CNS): 34.1 µM

O=C(NC(CO)CO)c1ccc2cc(C(=O)N3CC(CCl)c4ccc([N+](=O)[O-])cc43)[nH]c2c1 (stereo not drawn)
TGI (SK-MEL-5 melanoma): > 100 µM
TGI (TK-10 renal): > 100 µM
TGI (HOP-62 NSCLC): > 100 µM
TGI (UACC-62 melanoma): > 100 µM
TGI (EKVX NSCLC): > 100 µM
TGI (MDA-MB-435): > 100 µM
TGI (HT29 colon): > 100 µM
TGI (SK-MEL-2 melanoma): > 100 µM
TGI (SF-268 CNS): > 100 µM

CC(C)CC(NC(=O)C(N)CCC(=O)OCc1ccccc1)C(=O)NC(COCc1ccccc1)C(=O)NC(Cc1ccccc1)C(=O)ON1C(=O)CCC1=O (stereo not drawn) (H-E(OBn)LS(Bn)F-OSu; configuration not given here)
TGI (SK-MEL-5 melanoma): 35.8 µM
TGI (TK-10 renal): 73.8 µM
TGI (UACC-62 melanoma): 70 µM
TGI (RPMI-8226 leukemia): 61.4 µM
TGI (EKVX NSCLC): > 100 µM
TGI (MDA-MB-435): > 100 µM
TGI (HT29 colon): > 100 µM
TGI (SK-MEL-2 melanoma): 65.6 µM
TGI (SF-268 CNS): > 100 µM

CCc1cc2c(oc3c4ccccc4ccc23)c(=O)[nH]1
TGI (TK-10 renal): > 10 µM
TGI (UACC-62 melanoma): > 10 µM
TGI (EKVX NSCLC): > 10 µM
TGI (MDA-MB-435): > 10 µM
TGI (HT29 colon): > 10 µM
TGI (SF-268 CNS): > 10 µM

CC(CC(C)(C)[N+](C)(C)C)[N+](C)(C)C (stereo not drawn)
TGI (SK-MEL-5 melanoma): > 100 µM
TGI (TK-10 renal): > 100 µM
TGI (HOP-62 NSCLC): > 100 µM
TGI (UACC-62 melanoma): > 100 µM
TGI (RPMI-8226 leukemia): > 100 µM
TGI (EKVX NSCLC): > 100 µM
TGI (HT29 colon): > 100 µM
TGI (SF-268 CNS): > 100 µM

C/C(=N\n1c(Cc2ccccc2)n[nH]c1=O)c1ccc([N+](=O)[O-])cc1
TGI (SK-MEL-5 melanoma): > 100 µM
TGI (TK-10 renal): > 100 µM
TGI (HOP-62 NSCLC): > 100 µM
TGI (UACC-62 melanoma): > 100 µM
TGI (RPMI-8226 leukemia): > 100 µM
TGI (EKVX NSCLC): > 100 µM
TGI (MDA-MB-435): > 100 µM
TGI (HT29 colon): > 100 µM
TGI (SK-MEL-2 melanoma): > 100 µM

O=C(CCC(=O)OCC1OC(O)(CC2OC(CO)C(O)C(O)C2O)C(O)C1O)OCc1ccccc1 (stereo not drawn)
TGI (SK-MEL-5 melanoma): > 100 µM
TGI (TK-10 renal): > 100 µM
TGI (HOP-62 NSCLC): > 100 µM
TGI (UACC-62 melanoma): > 100 µM
TGI (EKVX NSCLC): > 100 µM
TGI (MDA-MB-435): > 100 µM
TGI (HT29 colon): > 100 µM
TGI (SK-MEL-2 melanoma): > 100 µM
TGI (SF-268 CNS): > 100 µM

CC(C)(C)OC(=O)NCCNC(=O)CN(CC(=O)O)C1CCCCC1N(CC(=O)O)CC(=O)O (stereo not drawn)
TGI (SK-MEL-5 melanoma): > 100 µM
TGI (TK-10 renal): > 100 µM
TGI (HOP-62 NSCLC): > 100 µM
TGI (UACC-62 melanoma): > 100 µM
TGI (RPMI-8226 leukemia): > 100 µM
TGI (MDA-MB-435): > 100 µM
TGI (HT29 colon): > 100 µM
TGI (SK-MEL-2 melanoma): > 100 µM
TGI (SF-268 CNS): > 100 µM

CC(=O)C(C(=O)C(C)(C)C)C(=O)C(C)(C)C
TGI (SK-MEL-5 melanoma): > 100 µM
TGI (TK-10 renal): > 100 µM
TGI (HOP-62 NSCLC): > 100 µM
TGI (UACC-62 melanoma): > 100 µM
TGI (RPMI-8226 leukemia): > 100 µM
TGI (MDA-MB-435): > 100 µM
TGI (SK-MEL-2 melanoma): > 100 µM
TGI (SF-268 CNS): > 100 µM

C=CCc1cccc2cc(C(=O)Nc3nc(C45CC6CC(CC(C6)C4)C5)cs3)c(=O)oc12
TGI (SK-MEL-5 melanoma): > 100 µM
TGI (TK-10 renal): 89.8 µM
TGI (HOP-62 NSCLC): 36.3 µM
TGI (RPMI-8226 leukemia): > 100 µM
TGI (EKVX NSCLC): > 100 µM
TGI (MDA-MB-435): > 100 µM
TGI (HT29 colon): > 100 µM
TGI (SF-268 CNS): 55 µM

COc1cc(C2C3=C(N=C4SC(C(C)=O)=C(C)N42)c2ccccc2CC3)cc(OC)c1OC (stereo not drawn)
TGI (SK-MEL-5 melanoma): > 100 µM
TGI (HOP-62 NSCLC): > 100 µM
TGI (UACC-62 melanoma): > 100 µM
TGI (RPMI-8226 leukemia): 93.4 µM
TGI (EKVX NSCLC): > 100 µM
TGI (MDA-MB-435): > 100 µM
TGI (HT29 colon): > 100 µM
TGI (SK-MEL-2 melanoma): > 100 µM
TGI (SF-268 CNS): > 100 µM

CN1N(c2ccccc2)C(=O)C2=NC=C(C#N)C(=N)C21C (stereo not drawn)
TGI (SK-MEL-5 melanoma): > 100 µM
TGI (TK-10 renal): > 100 µM
TGI (UACC-62 melanoma): > 100 µM
TGI (RPMI-8226 leukemia): > 100 µM
TGI (EKVX NSCLC): > 100 µM
TGI (MDA-MB-435): > 100 µM
TGI (SK-MEL-2 melanoma): > 100 µM

CCCC1C(C#N)(C#N)C(C#N)=C(N)C1(C)C(C)=O (stereo not drawn)
TGI (SK-MEL-5 melanoma): > 100 µM
TGI (TK-10 renal): > 100 µM
TGI (UACC-62 melanoma): > 100 µM
TGI (RPMI-8226 leukemia): > 100 µM
TGI (EKVX NSCLC): > 100 µM
TGI (MDA-MB-435): > 100 µM
TGI (HT29 colon): > 100 µM
TGI (SK-MEL-2 melanoma): > 100 µM
TGI (SF-268 CNS): > 100 µM
